In assay [1] the test system is HK-2. As to the kind of experiment: Antiproliferative activity against human HK-2 cells. It counts as functional, cell-based.
A short description of assay [2]: Antimigratory activity against human LX2 cells assessed as inhibition rate relative to control. In kind it is functional, LX-2.
The subject of assay [3] is MDA-MB-361. Put plainly: Antitumor activity against human MDA-MB-361 cells assessed as tumor growth inhibition. It counts as functional, cell-based.
Assay [4] can be described thus: Inhibition of mesenchymal transformation in human A549 cells assessed as inhibition rate relative to control. In kind it is functional.
For assay [5], the system named is enterovirus D68. Put plainly: Antiviral activity against Enterovirus D68 infected in human RD cells assessed as inhibition of viral replication measured after 48 hrs by qRT-PCR analysis. It counts as functional, organism-based. To be noted: Enterovirus D. On the technique in general: Quantitative PCR measures a nucleic acid by following its amplification.
The subject of assay [6] is Rattus norvegicus. As to the kind of experiment: Anti-inflammatory activity against egg white-induced paw edema in rat model assessed as detumescence rate measured after 6 hrs relative to control. It counts as functional.
Assay [7] is described as follows: Antiviral activity against DENV2 infected in human HepG2 cells incubated for 1 hrs by plaque assay. In kind it is functional, cell-based, dengue virus type 2. To be noted: Dengue virus, HepG2, 1 h.
The nature of assay [8]: Antiviral activity against HIV infected in human MT2 cells. It counts as functional, cell-based. To be noted: Human immunodeficiency virus 1, MT2.
Assay [9] has as its system HCT-116. Put plainly: Antiproliferative activity against human HCT-116 cells assessed as cell growth inhibition measured after 48 hrs by MTT assay. It counts as functional, cell-based. To be noted: HCT-116, 48 h.
For assay [10], the system named is K562. As to the kind of experiment: Antiproliferative activity against human K562 cells assessed as reduction in cell viability by MTT assay. In kind it is functional, cell-based. A general note: Tetrazolium dyes change colour on reduction, which living cells bring about.
The test system of assay [11] is Staphylococcus aureus. Put plainly: Antibacterial activity against Staphylococcus aureus MTCC 96 assessed as bacterial growth inhibition by broth micro-dilution assay. In kind it is functional. On the technique in general: In broth dilution the organism is exposed to a series of concentrations in liquid medium.
Assay [12] is described as follows: Antiviral activity against DENV2 infected in human HeLa cells incubated for 1 hrs by plaque assay. It counts as functional, cell-based, dengue virus type 2. To be noted: Dengue virus.
For assay [13], the system named is MDA-MB-231. Put plainly: Antitumor activity against human MDA-MB-231 cells assessed as tumor growth inhibition. It counts as functional, cell-based.
Assay [14] deals with KBM5. As to the kind of experiment: Antiproliferative activity against human KBM5 cells assessed as reduction in cell viability by MTT assay. In kind it is functional, cell-based.
The test system of assay [15] is BT-549. As to the kind of experiment: Antiproliferative activity against human BT-549 cells. In kind it is functional, cell-based.
For assay [16], the system named is MCF7. Put plainly: Cytotoxicity against human MCF7 cells. In kind it is functional, cell-based.
Assay [17] deals with Chikungunya virus. As to the kind of experiment: Antiviral activity against Chikungunya virus. It counts as functional, organism-based.
Assay [18] in a line: Antimigratory activity against human Cardiac fibroblast cells assessed as inhibition rate relative to control. It counts as functional.
Assay [19] concerns T47D. As to the kind of experiment: Antiproliferative activity against human T47D cells. It counts as functional, cell-based.
Assay [20] deals with Human immunodeficiency virus. As to the kind of experiment: Antiviral activity against HIV infected in human C8166 cells. It counts as functional, organism-based.

SMILES strings stand for the structures. Converted amounts (≈) assume the structure as drawn. “And” between values parts separate entries of the source, which are not always exact repeats. Equal values may be shown once.

As a reminder, the IC50 is the concentration that gives 50% inhibition. By MIC is commonly meant the least concentration at which growth counts as inhibited. For `C=C1CC[C@@H]2[C@](C)(CO)[C@H](O)CC[C@@]2(C)[C@@H]1C/C=C1/C(=O)OC[C@H]1O` [ANDROGRAPHOLIDE], the IC50 in assay [1] is 30.6 µM; in [3], 31.5 µM; in assay [5], 3.45 µM; in [7], 21 µM; in assay [8], 140 µM; in [9], 31.8 µM. Moreover, the IC50 in [10] is 23.7 µM; in assay [12], 23 µM; in assay [13] it was 20.3 µM; in assay [14], 8.5 µM; in assay [15] it was 23.2 µM; in assay [16], 35.1 µM. Also, the IC50 is 0.6 µM in assay [17]; 32.4 µM in assay [19]; 7.9 µM and 2.32 µM in assay [20]. For the same compound, the “inhibition (INH)” value in [2] was 15%; in assay [4], 55%; in assay [6] it was 74.42%; in assay [18], 35%. In assay [11], the MIC stood at 100 µg/mL (≈ 285 µM).

The values above are taken from ChEMBL document CHEMBL5236551, “Andrographolide and its derivatives: Current achievements and future perspectives” (Eur J Med Chem, 2021).
